Reference: ChEMBL document CHEMBL5725671, “Heterocyclic compounds useful as PDK1 inhibitors” (2018)

Each compound was assayed against T1, 3-phosphoinositide-dependent protein kinase 1 (Homo sapiens, UniProt O15530) (assay: PDK1 kinase assay: PDK1 (amino acids 51-359) and AKT2 (amino acids 140-467 fused to PIFtide, amino acids […]) were expressed as N-terminally tagged GST fusion proteins in insect cells and purified to homogeneity. Enzyme activity was determined in a coupled PDK1/AKT/FAM-crosstide assay and phosphorylation of FAM-crosstide was determined by standard IMAP protocol (Molecular Devices). For inhibition studies, compounds were titrated 4-fold in DMSO and diluted 40-fold into assay buffer (10 mM Tris HCl pH7.2; 10 mM MgCl2; 0.01% Triton X-100; 1 mM DTT) containing PDK1, AKT2, and FAM-crosstide (final concentrations: 0.75 nM PDK1, 10 nM unphosphorylated AKT2, and 100 nM crosstide substrate). The kinase reaction was initiated by adding ATP to a final concentration of 40 μM of PDK1 and incubated at 25° C. for 30 min. To detect assay product, the kinase reaction was combined with Progressive Binding Solution (1:600 Progressive Binding Reagent, 50% Buffer A, 50% Buffer B, Molecular Devices) in a 1:3 ratio. The mixture was incubated for 2 hours at 25° C. and the plate was scanned on an Analyst AD with excitation at 485 nm and emission at 530 nm. The fluorescence polarization value P is defined by the equation below. The value mP is generated by multiplying the P value for each reaction well by a factor of 1000. The value ΔmP for each well is the mP value for that well minus the mP value for the average negative control. P=(Fpar−Fperp)/(Fpar+Fperp) Eq.:Where par is fluorescence intensity parallel to the excitation plane; and perp is fluorescence intensity perpendicular to the excitation plane. ΔmP values were plotted as a function of compound concentration and the data were analyzed with a 4-parameter fit using GraphPad Prism software.).
T1 sequence (O15530 whole entry): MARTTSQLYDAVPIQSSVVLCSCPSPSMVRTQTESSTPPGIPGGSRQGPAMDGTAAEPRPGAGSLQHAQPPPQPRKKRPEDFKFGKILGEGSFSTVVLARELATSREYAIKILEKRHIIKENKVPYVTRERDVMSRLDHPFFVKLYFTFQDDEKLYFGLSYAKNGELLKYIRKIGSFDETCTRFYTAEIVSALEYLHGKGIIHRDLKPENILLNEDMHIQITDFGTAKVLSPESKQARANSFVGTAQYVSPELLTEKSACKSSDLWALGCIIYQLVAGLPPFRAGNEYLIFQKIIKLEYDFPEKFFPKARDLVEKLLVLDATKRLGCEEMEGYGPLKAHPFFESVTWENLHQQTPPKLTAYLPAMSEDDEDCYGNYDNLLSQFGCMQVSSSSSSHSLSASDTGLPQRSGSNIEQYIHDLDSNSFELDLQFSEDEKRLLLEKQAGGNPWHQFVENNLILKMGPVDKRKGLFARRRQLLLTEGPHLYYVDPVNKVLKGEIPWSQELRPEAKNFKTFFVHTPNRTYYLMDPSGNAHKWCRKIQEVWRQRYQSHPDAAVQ
Assay type: biochemical
`Cc1ccc(NC(=O)c2cccnc2NCc2ccc(-c3ccc4ncnc(N)c4c3)s2)cc1F` was tested, and the IC50 was over 5000 nM. In the case of `C[C@H](NC(=O)c1cccnc1NCc1ccc(-c2ccc3ncnc(NCCO)c3c2)s1)c1ccc(F)cc1`, the IC50 is reported as under 100 nM. Compound `Cc1nc(N)cnc1-c1ccc(CNc2ncc(C#N)cc2C(=O)N[C@@H](C)c2ccc(F)cc2)cc1` has an IC50 of over 5000 nM. Compound `CCc1cnc(NCc2ccc(-c3ccc4ncnc(N)c4c3)s2)c(C(=O)NCc2ccc(F)c(F)c2)c1` has an IC50 of under 100 nM. `Nc1ncnc2ccc(-c3ccc(CNc4ncccc4C(=O)NCc4cncc(F)c4)s3)cc12` showed an IC50 of under 100 nM. Work on `C[C@H](NC(=O)c1cc(C#N)cnc1NCc1ccc(-c2cnc3[nH]c(=O)n(C)c3c2)cc1)c1ccc(F)cc1` yielded an IC50 of under 100 nM. `C[C@H](NC(=O)c1nc(C#N)cnc1N[C@H](C)c1ccc(-c2cnc3[nH]nc(N)c3c2)nc1)c1ccc(F)c(F)c1` gave an IC50 of under 100 nM. `C[C@H](NC(=O)c1nc(C#N)cnc1NCC#Cc1ccc2nc(N)ncc2c1)c1ccc(F)c(F)c1` was tested, and the IC50 was under 100 nM. For `N#Cc1cnc(NCc2ccc(-c3cnc4[nH]ncc4c3)cc2)c(C(=O)NCc2ccc(F)c(F)c2)c1`, the IC50 was under 100 nM. `C[C@H](NC(=O)c1cc(C#N)cnc1NCc1ccc(-c2cnc3[nH]c(=O)[nH]c3c2)c(F)c1)c1ccc(F)cc1` gave an IC50 of under 100 nM. `C[C@H](NC(=O)c1cccnc1NCc1ccc(-c2cc3c(cn2)ncn3C)s1)c1ccc(F)cc1` was tested, and the IC50 was over 5000 nM. For `C[C@H](NC(=O)c1cc(C#N)cnc1NCc1ccc(-c2cnc3[nH]nc(N)c3c2)cc1Cl)c1ccc(F)cc1`, the IC50 was under 100 nM. `C[C@H](NC(=O)c1cc(C#N)cnc1N[C@H](C)c1ccc(-c2cnc3[nH]nc(N)c3c2)nc1)c1ccc(F)cc1` gave an IC50 of under 100 nM. For `C[C@H](NC(=O)c1nc(C#N)cnc1NCc1ccc(-c2cnc(N)c(CO)n2)cc1)c1ccc(F)c(F)c1`, the IC50 was under 100 nM. With `C[C@H](NC(=O)c1nc(C(F)(F)F)cnc1N[C@H](C)c1ccc(-c2cnc3[nH]nc(N)c3c2)cc1)c1ccc(F)c(F)c1` the IC50 was under 100 nM. `C[C@H](NC(=O)c1nc(C(F)(F)F)cnc1NCc1ccc(-c2cnc3[nH]nc(N)c3c2)cc1)c1ccc(F)c(F)c1` was tested, and the IC50 was under 100 nM. `Nc1ncnc2ccc(-c3ccc(CNc4ncc(Br)cc4S(=O)(=O)NCc4ccc(F)c(F)c4)s3)cc12` showed an IC50 of over 5000 nM. For `C[C@H](NC(=O)c1cc(C#N)cnc1NCC#Cc1ccc2nc(N)ncc2c1)c1ccc(F)cc1`, the IC50 was under 100 nM. `Nc1ncc(-c2ccc(CNc3ncc(C(F)(F)F)cc3C(=O)Nc3ccc(F)cc3)cc2)nc1CO` gave an IC50 of under 100 nM. Work on `COCCNC(=O)c1cccnc1NCc1ccc(-c2ccc3ncnc(N)c3c2)s1` yielded an IC50 of over 5000 nM. `N#Cc1cc(F)ccc1NC(=O)c1cc(C(F)(F)F)cnc1NCc1ccc(-c2cnc3[nH]nc(N)c3c2)cc1` gave an IC50 of under 100 nM. `C[C@H](NC(=O)c1cc(C#N)cnc1NCc1ccc(-c2cnc3[nH]nc(N)c3c2)cc1F)c1ccc(F)cc1` gave an IC50 of under 100 nM.
